Results taken from EP0714662A1, “ANTIALLERGIC AGENT” (MEIJI MILK PRODUCTS COMPANY LIMITED, priority 1993, dated 1995).
Ends that are not written are not given here. Peptide text beside a SMILES is read from it.

Columns and labels:
[1] = tested on: serum IgE from 15 patients suffering from mite rhinallergosis; assay: Enzyme antibody assay: binding of solid phase Der p II overlapping peptides to patients' serum IgE; parameters: species or system human; conditions: serum from each of 15 patients
Experimental: The complete primary structure of the amino acid sequence of a Der p II protein was determined after cDNA was isolated therefrom by Chua et al. (Int. Arch. Allergy Appl. Immunol. 91: 118-123, 1990). Based on the amino acid sequence, peptides were synthesized on a solid phase using a multipin system (manufactured by Chiron) and coupling reagents, Fmoc-amino acid and DCC (dicyclohexyl carbodiimide) (Geysen, H.M. et al., Proc. Natl. Acad. Sci. USA. 81:3998-4002, 1984). Sixty-one kinds of peptides were synthesized, the first peptide comprising the first through ninth amino acids of the N-terminal of Der p II, the second peptide comprising the third through eleventh amino acids of the N-terminal, and the third through 61st peptides being prepared in an analogous manner.
The RAST (radio-allergosorbent test, Pharmacia) values as determined using antigens from two mite species, Dermatophagoides pteronyssinus (Der p) and Dermatophagoides farina (D f), were class 4. Each of the above-mentioned 61 synthesized peptides and 100 µl of each patient's serum were placed in a 96-well plate and reacted overnight at room temperature. Synthesized peptides in a solid phase were washed three times to remove the patient's serum using a washing solution of 0.05% Tween 20/0.15 M NaCl/Tris-HCl (pH 7.5). 100 µl of galactosidase-labelled anti-human IgE antibodies (Pharmacia) were diluted to 40-fold using a 1:9 diluted Block-ace (product of Dainippon Seiyaku K.K.). The diluted solution was added to a 96-well plate, each synthesized solid phase peptide was also added, and reaction, was allowed to proceed overnight at room temperature. The synthesized solid phase peptide was washed with the same washing solution five times. Thereafter, to a 96-well black plate (manufactured by Dainippon Seiyaku K.K.), were added 200 µl of a solution of 0.1 mM 4-methylumbelliferyl-β-D-galactopyranoside in 0.1% bovine serum albumin/0.1 M NaCl/1 mM MgCl₂/0.1% sodium azide/10 mM phosphate buffer (pH 7.0). Subsequently, the synthesized solid phase peptide was added and reacted for 2 hours at 37°C. After completion of reaction, 100 µl of a reaction terminating solution (0.1 M glycin/NaOH, pH 10.3) were added to each well, and absorbance was measured using a fluorospectrophotometer for 96-well plates (Manufactured by Flow). This reaction was studied for each of 15 patients.

basophils of a patient = assay: Histamine release inhibition test with peptide D, blood of egg allergy patients; assay type: cell-based, human
Experimental: The histamine release inhibition test was performed using a histamine kit "Eiken" manufactured by Eiken Kagaku K.K. Briefly, heparinized peripheral blood was collected from each patient, and the blood was diluted to a 1:1 ratio using a buffer for release tests. Equivalent amounts of a diluted peptide D (which had been diluted to double the density of an inhibitory concentration using a buffer for release tests) and a diluted blood from a patient (which had been diluted to a 1:1 ratio) were mixed and allowed to react overnight at 4°C. Subsequently, fifty µl of peptide B or OVA diluted with a buffer for release was mixed with 100 µl of the patient's blood with which peptide D was reacted. […] After the histamine tubes were incubated for 16 to 24 hours, the solution was drawn off using an aspirator, and measured using a gamma scintillation counter. The amount of total histamine was determined using a supernatant sample obtained by adding 1 ml of purified water to 50 µl of whole blood, freezing and thawing, then centrifugally separating. […] The ratio of the difference with respect to the total amount of histamine was calculated and taken as a histamine release ratio. Inhibition ratio (%) was calculated by the following equation: %Inhibition = {1-(histamine release ratio in the presence of an inhibitory peptide)/(histamine release ratio in the absence of an inhibitory peptide)} x 100 [formula] […]

[2] = tested on: serum IgE of cryptomeria pollinosis patients; assay: Enzyme antibody assay: binding of solid phase Cry j II overlapping peptides to patients' serum IgE; parameters: species or system human
Description: Presently, however, the C-terminal amino acids are unknown. Therefore, overlapping peptides were synthesized on a solid phase using an Fmoc-amino acid and multipin system (manufactured by Chiron) so as to cover all the proteins consisting of 460 amino acid residues (Sequence No. 1) other than the N-terminal moiety. The first peptide comprises the first through ninth amino acids in the N-terminal moiety of a Cry j II protein. The second peptide comprises the third through eleventh amino acids in the N-terminal moiety.
Subsequently, using a washing solution of 0.05% Tween 20/0.15 M NaCl/Tris-HCl (pH 7.5), synthesized solid phase peptides were washed three times to remove the patient's serum. Using a 1:9 diluted Block-ace (product of Dainippon Seiyaku K.K.), 100 µl of galactosidase-labelled anti-human IgE antibodies (Pharmacia) were diluted to 40-fold. The diluted solution was added to a 96-well plate, and then each synthesized solid phase peptide was also added. Reaction was allowed to proceed overnight at room temperature. The synthesized solid phase peptide was washed with the same washing solution five times. Thereafter, 200 µl of a solution of 0.1 mM 4-methylumbelliferyl-β-D-galactopyranoside in 0.1% bovine serum albumin/0.1 M NaCl/1 mM MgCl₂/0.1% sodium azide/10 mM phosphate buffer (pH 7.0) were added to a 96-well black plate (manufactured by Dainippon Seiyaku K.K.). Subsequently, the synthesized solid phase peptide was added and reacted for 2 hours at 37°C.

Compound	binding reactions with IgE antibodies [1]	reaction with serum IgE of cryptomeria pollinosis patients [2]	also measured
IATHAKIRD [synthesized peptide No. 61]	exhibited binding reactions with IgE antibodies	–	–
ANQNTKTAK [synthesized peptide No. 22]	exhibited binding reactions with IgE antibodies	–	–
FQLEAVFEA [synthesized peptide No. 18]	exhibited binding reactions with IgE antibodies	–	–
EFRADHPFLF [peptide D]	–	–	suppression ratio of histamine release caused by untreated OVA (basophils of a patient; peptide D 1.4 mg/ml): 93%; suppression of histamine release caused by stimulant peptide B (basophils of a patient; peptide D at a concentration of not less than 1.4 mg/ml): at least 85%
PKSENVVVT [synthesized peptide No. 50]	exhibited binding reactions with IgE antibodies	–	–
SIDGLEVDV [synthesized peptide No. 29]	exhibited binding reactions with IgE antibodies	–	–
SENVVVTVK [synthesized peptide No. 51]	exhibited binding reactions with IgE antibodies	–	–
C[C@@H](O)[C@H](NC(=O)[C@H](CS)NC(=O)[C@H](CC(N)=O)NC(=O)[C@@H]1CCCN1)C(=O)N[C@@H](CC(N)=O)C(=O)N[C@@H](CCCCN)C(=O)N[C@@H](CS)C(=O)N[C@@H](Cc1c[nH]cn1)C(=O)NCC(=O)O [Pro-Asn-Cys-Thr-Asn-Lys-Cys-His-Gly] (H-PNCTNKCHG-OH)	–	reacted serum IgE of cryptomeria pollinosis patients	–
QCKWVNGRE	–	reacted serum IgE of cryptomeria pollinosis patients	–
SASACQNQR [Ser-Ala-Ser-Ala-Cys-Gln-Asn-Gln-Arg]	–	reacted serum IgE of cryptomeria pollinosis patients	–
C[C@H](NC(=O)[C@H](CO)NC(=O)[C@H](C)NC(=O)[C@H](CO)NC(=O)[C@@H](NC(=O)[C@@H](N)CS)[C@@H](C)O)C(=O)N[C@@H](CS)C(=O)N[C@@H](CCC(N)=O)C(=O)N[C@@H](CC(N)=O)C(=O)O [Cys-Thr-Ser-Ala-Ser-Ala-Cys-Gln-Asn] (H-CTSASACQN-OH)	–	reacted serum IgE of cryptomeria pollinosis patients	–
VVTVKVMGD [synthesized peptide No. 53]	exhibited binding reactions with IgE antibodies	–	–
NLFFNGPCQ [Asn-Leu-Phe-Phe-Asn-Gly-Pro-Cys-Gln]	–	reacted serum IgE of cryptomeria pollinosis patients	–
KCPLVKGQQ [synthesized peptide No. 39]	exhibited binding reactions with IgE antibodies	–	–
KWVNGREIC [Lys-Trp-Val-Asn-Gly-Arg-Glu-Ile-Cys]	–	reacted serum IgE of cryptomeria pollinosis patients	–
NVPKIAPKS [synthesized peptide No. 47]	exhibited binding reactions with IgE antibodies	–	–
KIEIKASID [synthesized peptide No. 26]	exhibited binding reactions with IgE antibodies	–	–
